# Laboratory results reported in the supplement of paper PMC10307832.
# How the values were obtained:
# Assay in all cases: relative viability (nuclei count vs DMSO), 5 days (fraction); higher = more cells survive
# [1] = compound: CC(=O)Nc1cccc(-n2c(=O)n(C3CC3)c(=O)c3c(Nc4ccc(I)cc4F)n(C)c(=O)c(C)c32)c1 [Trametinib] + CC(C)C[C@H](NC(=O)[C@H](Cc1ccccc1)NC(=O)c1cnccn1)B(O)O [Bortezomib] (partner 0.002 µM)
# Method in brief: (§1)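 Lung cancer cell lines were pin-tool dosed in 1536-well plates on the day after seeding, with either a lone drug or a fixed anchor-drug dose plus five library-drug doses (not always all listed) in √10 steps. Nuclei were counted on 4× images after 5 days. Relative viability is the ratio of treated-well to vehicle-well nuclei counts, with each value a median of duplicate plates.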
# [2] = compound: CN1C=C(C2=CC=CC=C21)/C=C\3/C4=C(C=CC=N4)NC3=O + CC1(C)CCC(c2ccc(Cl)cc2)=C(CN2CCN(c3ccc(C(=O)NS(=O)(=O)c4ccc(N[C@H](CCN5CCOCC5)CSc5ccccc5)c(S(=O)(=O)C(F)(F)F)c4)cc3)CC2)C1 [Navitoclax] (partner 0.5 µM)
# Method in brief: as §1
# [3] = compound: CN1C=C(C2=CC=CC=C21)/C=C\3/C4=C(C=CC=N4)NC3=O + Cc1cc(Nc2cc(N3CCN(C)CC3)nc(Sc3ccc(NC(=O)C4CC4)cc3)n2)n[nH]1 [Tozasertib] (partner 0.1 µM)
# Method in brief: as §1
Cell Line,relative viability ([1]; first compound 0.0025 µM),relative viability ([1]; first compound 0.007906 µM),relative viability ([1]; first compound 0.025 µM),relative viability ([1]; first compound 0.07906 µM),relative viability ([1]; first compound 0.25 µM),relative viability ([2]; first compound 0.02 µM),relative viability ([2]; first compound 0.06325 µM),relative viability ([2]; first compound 0.2 µM),relative viability ([2]; first compound 0.6325 µM),relative viability ([2]; first compound 2 µM),relative viability ([3]; first compound 0.02 µM),relative viability ([3]; first compound 0.06325 µM),relative viability ([3]; first compound 0.2 µM),relative viability ([3]; first compound 0.6325 µM),relative viability ([3]; first compound 2 µM)
EMC-BAC-2,1.05,0.99,0.865,1,0.859,0.924,1.12,1.25,1.13,1.35,0.315,0.295,0.301,0.281,0.374
NCI-H1623,–,–,–,–,–,–,–,–,–,–,0.384,0.431,0.358,0.384,0.497
NCI-H441,0.474,0.55,0.72,0.475,0.17,1.08,–,0.906,0.596,0.875,0.67,0.607,0.651,0.572,0.567
LCLC-103H,1.16,0.977,0.887,0.821,0.626,–,–,–,–,–,0.313,0.506,0.475,0.511,0.536
HOP-62,0.776,0.956,0.425,0.439,0.186,1.25,1.14,0.703,0.99,1,0.31,0.359,0.412,0.406,0.422
NCI-H1793,–,–,–,–,–,0.425,0.415,0.267,1.05,0.934,0.306,0.37,0.296,0.258,0.197
NCI-H1355,0.981,1.04,0.554,0.847,0.266,0.868,0.921,0.793,0.632,0.673,0.52,0.599,0.523,0.412,0.368
COR-L23,0.982,1,1.02,0.935,0.309,1.19,0.983,1.03,1,1.09,0.21,0.187,0.222,0.162,0.151
HCC-44,0.926,0.905,0.946,0.816,0.585,0.943,1.03,0.89,0.726,0.772,0.918,0.887,–,1.13,0.944
A-427,1.1,1.05,0.735,0.763,0.601,0.975,0.887,–,0.984,1.06,0.203,0.207,–,0.201,0.166
IA-LM,0.621,0.392,0.174,0.178,0.111,1.05,0.833,0.731,0.749,0.541,–,–,–,–,–
NCI-H520,0.612,0.485,0.444,0.44,0.126,0.935,1.03,1.09,1.17,1.17,0.396,0.47,0.501,0.436,0.415
LXF-289,0.872,0.812,0.757,0.703,0.459,0.962,0.908,0.97,1.01,1.01,0.14,0.195,0.217,0.213,0.182
NCI-H2087,0.899,0.669,0.446,0.327,0.129,1.01,0.843,1.19,1.03,1.13,0.227,0.245,0.249,0.189,0.212
CAL-12T,0.784,0.734,0.645,1.43,0.454,1.22,1.11,1.22,1.19,1.14,0.343,0.255,0.247,0.324,0.206
NCI-H596,0.759,0.892,0.795,1.47,0.474,0.957,0.925,0.901,0.779,0.902,0.981,0.878,0.745,0.7,0.918
PC-14,0.918,0.834,0.673,0.76,0.594,1.05,0.985,1.14,0.971,0.989,0.564,0.525,0.585,0.553,0.541
NCI-H1915,0.931,0.816,0.825,0.756,0.139,0.823,0.8,0.805,0.772,0.801,0.385,0.432,0.482,0.424,0.484
NCI-H647,0.853,0.75,0.652,0.654,0.294,0.767,0.983,–,0.919,0.935,0.327,0.345,0.206,0.321,0.215
NCI-H322M,1.29,1.14,0.879,1.03,0.717,1.31,1.3,1.12,1.12,1.29,0.46,0.5,0.485,0.507,0.639
A549,–,–,–,–,–,1.36,1.27,1.15,1.24,1.15,–,–,–,–,–
NCI-H2170,–,–,–,–,–,–,0.604,0.527,0.543,0.541,0.549,0.721,0.737,0.79,0.72
NCI-H1563,0.854,0.794,0.824,0.682,0.616,–,–,–,–,–,–,–,–,–,–
Calu-6,1.08,0.813,0.376,0.236,0.224,0.804,0.772,0.746,0.908,0.859,–,–,–,–,–
NCI-H358,–,–,–,–,–,–,–,–,–,–,0.0895,0.11,0.109,0.0977,0.117
SK-MES-1,–,–,–,–,–,0.902,1.04,1.26,1.11,1.15,0.945,0.749,0.917,0.874,0.886
NCI-H2342,–,–,–,–,–,–,–,–,–,–,0.492,0.437,0.556,0.438,0.505
